Source: US7396834B2, “4(Phenyl-piperazinyl-methyl) benzamide derivatives and their use for the treatment of pain or gastrointestinal disorders” (AstraZeneca AB, priority 2002, dated 2008)

Legend:
cloned human δ receptors [1] = molecular target: T1, cloned human δ receptors (Homo sapiens, UniProt P41143); experiment: Human δ receptor radioligand binding assay
T1 construct: expressed in transfected cells; host or cells: human HEK-293S cells, grown in suspension under geneticin selection

cloned human μ receptors = molecular target: T2, cloned human μ receptors (Homo sapiens, UniProt P35372); experiment: Human μ receptor radioligand binding assay
T2 construct: expressed in transfected cells; host or cells: human HEK-293S cells, grown in suspension under geneticin selection
T2 sequence (P35372 whole entry): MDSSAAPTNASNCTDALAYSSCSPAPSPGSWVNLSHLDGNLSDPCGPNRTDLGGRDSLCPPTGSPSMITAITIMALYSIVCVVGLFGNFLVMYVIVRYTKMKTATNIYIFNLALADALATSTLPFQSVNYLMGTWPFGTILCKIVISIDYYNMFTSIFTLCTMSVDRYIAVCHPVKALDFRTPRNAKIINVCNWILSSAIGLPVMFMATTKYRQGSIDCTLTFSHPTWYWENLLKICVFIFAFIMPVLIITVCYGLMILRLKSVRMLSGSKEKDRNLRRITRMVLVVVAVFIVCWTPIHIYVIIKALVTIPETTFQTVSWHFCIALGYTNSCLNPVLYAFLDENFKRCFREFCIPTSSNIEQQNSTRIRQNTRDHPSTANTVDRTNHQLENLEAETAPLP

cloned human δ receptors [2] = molecular target: T1, cloned human δ receptors; experiment: Human δ receptor GTP[γ]35S functional assay (low expression); format: biochemical; conditions: for Emax: relative to SNC80, lower expression level, range over the listed compounds
Procedure: (§1) Human 293S cells expressing cloned human κ, δ and μ receptors and neomycin resistance are grown in suspension at 37° C. and 5% CO2 in shaker flasks containing calcium-free DMEM10% FBS, 5% BCS, 0.1% Pluronic F-68, and 600 μg/ml geneticin.
(§2) Cells are pelleted and resuspended in lysis buffer (50 mM Tris, pH 7.0, 2.5 mM EDTA, with PMSF added just prior to use to 0.1 mM from a 0.1 M stock in ethanol), incubated on ice for 15 min, then homogenized with a polytron for 30 sec. The suspension is spun at 1000 g (max) for 10 min at 4° C. The supernatant is saved on ice and the pellets resuspended and spun as before. The supernatants from both spins are combined and spun at 46,000 g(max) for 30 min. The pellets are resuspended in cold Tris buffer (50 mM Tris/Cl, pH 7.0) and spun again. The final pellets are resuspended in membrane buffer (50 mM Tris, 0.32 M sucrose, pH 7.0). Aliquots (1 ml) in polypropylene tubes are frozen in dry ice/ethanol and stored at −70° C. until use. The protein concentrations are determined by a modified Lowry assay with sodium dodecyl sulfate.
The agonist activity of the compounds is measured by determining the degree to which the compounds receptor complex activates the binding of GTP to G-proteins to which the receptors are coupled. In the GTP binding assay, GTP[γ]^35S is combined with test compounds and membranes from HEK-293S cells expressing the cloned human opioid receptors or from homogenised rat and mouse brain. Agonists stimulate GTP[γ]^35S binding in these membranes. The EC50 and Emax values of compounds are determined from dose-response curves. Right shifts of the dose response curve by the delta antagonist naltrindole are performed to verify that agonist activity is mediated through delta receptors. For human δ receptor functional assays, EC50 (low) is measured when the human δ receptors used in the assay were expressed at lower levels in comparison with those used in determining EC50 (high). The Emax values were determined in relation to the standard δ agonist SNC80, i.e., higher than 100% is a compound that have better efficacy than SNC80.

cloned human δ receptors [3] = molecular target: T1, cloned human δ receptors; experiment: Human δ receptor GTP[γ]35S functional assay (high expression); format: biochemical
Procedure: as §1
as §2, with “The final pellets are resuspended in membrane buffer (50 mM Tris, 0.32 M sucrose, pH 7.0). Aliquots (1 ml) in polypropylene tubes are frozen in dry ice/ethanol and stored at −70° C. until use.” left out
The agonist activity of the compounds is measured by determining the degree to which the compounds receptor complex activates the binding of GTP to G-proteins to which the receptors are coupled. […] The EC50 and Emax values of compounds are determined from dose-response curves. […] For human δ receptor functional assays, EC50 (low) is measured when the human δ receptors used in the assay were expressed at lower levels in comparison with those used in determining EC50 (high). […]

cloned human κ receptors = cloned human κ receptors (Homo sapiens, UniProt P41145); experiment: Human κ receptor radioligand binding assay; conditions: membranes of human 293S cells; Table 1
Chain of cloned human κ receptors (P41145 whole entry): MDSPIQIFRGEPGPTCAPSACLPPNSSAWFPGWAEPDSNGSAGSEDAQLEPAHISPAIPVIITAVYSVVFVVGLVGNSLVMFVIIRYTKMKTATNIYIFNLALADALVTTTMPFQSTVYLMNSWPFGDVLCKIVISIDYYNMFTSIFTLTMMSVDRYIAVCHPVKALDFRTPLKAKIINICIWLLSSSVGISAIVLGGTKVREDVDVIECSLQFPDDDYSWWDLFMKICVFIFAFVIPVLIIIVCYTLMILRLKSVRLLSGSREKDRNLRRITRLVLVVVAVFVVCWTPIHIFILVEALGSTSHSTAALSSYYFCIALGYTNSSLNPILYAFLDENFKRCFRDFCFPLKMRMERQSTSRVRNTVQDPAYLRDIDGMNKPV

[4] = molecular target: T3, δ receptors in rat brain membranes (Rattus norvegicus, UniProt P33533); experiment: Rat brain GTPγ35S functional assay; format: biochemical
T3 construct: membranes from HEK-293S cells expressing the cloned human opioid receptors or from homogenised rat and mouse brain; from tissue; host or cells: rat brain homogenate membranes
T3 sequence (P33533 whole entry): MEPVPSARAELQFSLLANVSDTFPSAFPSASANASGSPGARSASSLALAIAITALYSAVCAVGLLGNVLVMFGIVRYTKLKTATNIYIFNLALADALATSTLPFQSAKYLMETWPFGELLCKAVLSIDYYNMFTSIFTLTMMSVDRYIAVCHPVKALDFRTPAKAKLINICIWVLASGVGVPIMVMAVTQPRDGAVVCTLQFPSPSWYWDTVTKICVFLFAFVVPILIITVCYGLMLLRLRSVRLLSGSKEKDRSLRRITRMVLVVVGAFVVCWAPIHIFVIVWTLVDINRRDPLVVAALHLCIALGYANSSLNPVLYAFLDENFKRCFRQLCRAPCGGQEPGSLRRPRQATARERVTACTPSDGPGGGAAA
Procedure: Rat brains are weighed and rinsed in ice-cold PBS (containing 2.5 mM EDTA, pH 7.4). The brains are homogenized with a polytron for 30 sec (rat) in ice-cold lysis buffer (50 mM Tris, pH 7.0, 2.5mM EDTA, with phenylmethylsulfonyl fluoride added just prior use to […] from a 0.5M stock in DMSO:ethanol).
The agonist activity of the compounds is measured by determining the degree to which the compounds receptor complex activates the binding of GTP to G-proteins to which the receptors are coupled. In the GTP binding assay, GTP[γ]^35S is combined with test compounds and membranes from HEK-293S cells expressing the cloned human opioid receptors or from homogenised rat and mouse brain. Agonists stimulate GTP[γ]^35S binding in these membranes. The EC50 and Emax values of compounds are determined from dose-response curves. […] For human δ receptor functional assays, EC50 (low) is measured when the human δ receptors used in the assay were expressed at lower levels in comparison with those used in determining EC50 (high). […]
Rat brain membranes are thawed at 37° C., passed 3 times through a 25-gauge blunt-end needle and diluted in the GTPYS binding (50 mM Hepes, 20 mM NaOH, 100 mM NaCl, 1 mM EDTA, 5 mM MgCl2, pH 7.4, Add fresh: 1 mM DTT, 0.1% BSA). […] The basal and maximal stimulated binding are determined in absence and presence of 3 μM SNC-80.

[5] = Human δ IC50, Table 2, range over the listed compounds
[6] = Human μ IC50, Table 2, range over the listed compounds

T1 sequence (P41143 whole entry): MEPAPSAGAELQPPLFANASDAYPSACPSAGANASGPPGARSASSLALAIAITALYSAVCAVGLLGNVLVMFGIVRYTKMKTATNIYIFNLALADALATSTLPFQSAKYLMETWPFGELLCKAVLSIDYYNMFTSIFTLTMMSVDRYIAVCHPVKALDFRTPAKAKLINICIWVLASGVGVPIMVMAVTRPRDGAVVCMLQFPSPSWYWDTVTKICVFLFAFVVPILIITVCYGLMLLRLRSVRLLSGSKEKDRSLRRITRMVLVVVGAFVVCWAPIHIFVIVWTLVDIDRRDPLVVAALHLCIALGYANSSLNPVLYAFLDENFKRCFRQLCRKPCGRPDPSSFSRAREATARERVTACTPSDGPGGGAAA

| SMILES | IC50 (cloned human δ receptors [1]; [5]) [nM] | IC50 (cloned human μ receptors; [6]) [nM] | EC50 (cloned human δ receptors [2]) [nM] | Emax (cloned human δ receptors [2]) [%] | IC50 (cloned human δ receptors [1]; Human δ IC50, membranes of human 293S cells, displacement of radioligand, Table 1) [nM] | EC50 (cloned human δ receptors [3]) [nM] | Emax (cloned human δ receptors [3]; relative to standard δ agonist SNC80, higher expression level) [%] | IC50 (cloned human κ receptors) [nM] | IC50 (cloned human μ receptors; Human μ IC50, membranes of human 293S cells, Table 1) [nM] | EC50 [4] [nM] | Emax ([4]; relative to SNC80, rat brain membranes) [%] |
| --- | --- | --- | --- | --- | --- | --- | --- | --- | --- | --- | --- |
| CCN(CC)C(=O)c1ccc(C(c2cccc(C(=O)NC)c2)N2CCN(Cc3ccccc3)CC2)cc1 (single isomer, unassigned) [Compound 3a, 3-[[4-[(diethylamino)carbonyl]phenyl][4-(phenylmethyl)-1-piperazinyl]methyl]-N-methyl-benzamide] | 0.14 to 3.73 | 45 to 1720 | 0.5 to 83 | 91 to 104 | – | – | – | – | – | – | – |
| CCN(CC)C(=O)c1ccc(C(c2cccc(C(N)=O)c2)N2CCN(Cc3ccccc3)CC2)cc1 (single isomer, unassigned) [Compound 1a, 3-[(4-[(diethylamino)carbonyl]phenyl)(4-benzyl-piperazin-1-yl)methyl]benzamide] | – | – | – | – | 0.26 | 0.29 | 101 | 112 | 7.7 | 0.2 | 170 |
| CCN(CC)C(=O)c1ccc(C(c2cccc(C(N)=O)c2)N2CCN(Cc3ccccc3)CC2)cc1 (single isomer, unassigned) [Compound 1b, 3-[(4-[(diethylamino)carbonyl]phenyl)(4-benzyl-piperazin-1-yl)methyl]benzamide] | 0.14 to 3.73 | 45 to 1720 | 0.5 to 83 | 91 to 104 | – | – | – | – | – | – | – |
| CCN(CC)C(=O)c1ccc(C(c2cccc(C(N)=O)c2)N2CCN(Cc3ccco3)CC2)cc1 (single isomer, unassigned) [Compound 2a, 3-{(4-[(diethylamino)carbonyl]phenyl)[4-(2-furylmethyl)-piperazin-1-yl]methyl}benzamide] | 0.14 to 3.73 | 45 to 1720 | 0.5 to 83 | 91 to 104 | – | – | – | – | – | – | – |
